In patent publication US20040018515A1, “Compositions selective for adenosine diphosphate and methods of using same” (priority 2002, published 2004):
Values belong to the compound of their own block, whether it stands above or below them.

Key:
Type in all cases: biochemical
ppERK [1] = experiment: 96-well high throughput screening (HTS) ppERK kinase assay
Procedure: A 96-well high throughput screening (HTS) ppERK kinase assay was constructed using the ADP F01 aptamer in an SPA. […] This HTS assay was used to assess the relative inhibitory activity of 100 test compounds at 10 μM concentration (FIG. 37). This HTS assay was performed three times (FIGS. 37A, 37B and 37C).

ppERK [2] = experiment: ADP aptamer F01-based kinase SPA; conditions: ADP SPA with ADP F01 aptamer; 3H-ATP and MBP; FIG. 34, 35
Excerpt: An ADP aptamer will concentrate the tritiated ADP released by kinase on the surface of the flash plate and generate a scintillation proximity signal detectable in a Topcount instrument.

ppERK [3] = experiment: Minimized ADP aptamer F01-based kinase SPA; set-up: Initial Rate: unit not given here; conditions: for inhibition of ppERK activity (decreased signal in the ADP SPA): non-biotinylated minimized ADP aptamer on capture probe, FIG. 44-46
Procedure: An ADP aptamer will concentrate the tritiated ADP released by kinase on the surface of the flash plate and generate a signal detectable in a Topcount scintillation counter. For the study presented, minimized ADP aptamer (JD37.98A) (FIG. 42, SEQ ID NO: 1 19) was directly 3′-biotinylated and immobilized onto NEN streptavidin flashplates. Specifically, select assay wells were incubated with 5 pmol of JD37.98A directly 3′-biotinylated aptamer in 25 μl of PBS Buffer:BupH (0.05% tRNA, 0.025% Tween 20) with shaking at 650 RPM for 30 min. Unbound biotinylated aptamer probe was rinsed from the plate with three 1×PBS washes and dried as previously described. In following experiments the production of ^3H-ADP from ^3H-ATP was detected from ppERK using streptavidin coated flash plate wells that were incubated with 60 pmol of MK08.112A biotinylated capture probe in 30 μl of PBS Buffer:BupH (0.05% tRNA, 0.025% Tween 20) for 15 min with shaking at 650 RPM. Unbound probe was removed from the plate with three 1×PBS washes and blotted dry as described above. JD37.98A (150 pmol; not biotinylated) minimized ADP aptamer transcribed with capture probe sequence was added to select wells in 30 μl 1×PBS and incubated for 30 min with shaking at shaking at 650 RPM, Unbound probe was removed with three PBS washes and the plates were blotted dry as described above. Kinase reactions were carried out in a 30 μl final sample volume as follows. Stock 15 nM ppERK enzyme solution was prepared in selection buffer and incubated for 10 min at room temperature. Kinase test reactions were initiated by adding 1 μl test sample, e.g., inhibitor, to 14 μl selection buffer containing 1 mM DTT, […], and 2.7 μM ^3H-ATP and then combining this mixture with an equal volume of 15 nM ppERK enzyme solution. Kinase test reaction was immediately transferred to the appropriate test well and the reaction monitored on a TopCount, ^3H SPA scintillation counter over 900 min.

[4] = FIG. 37A, test compounds at 10 μM, 40 nM ppERK, 1.35 μM 3H-ATP, 10 μM MBP
[5] = Concentration 0.05 (unit not given)
[6] = Concentration 0.1 (unit not given)
[7] = Concentration 0.5 (unit not given)
[8] = Concentration 2.5 (unit not given)
[9] = Concentration 5 (unit not given)
[10] = Concentration 1.8 (unit not given)
[11] = Concentration 3.6 (unit not given)
[12] = Concentration 18 (unit not given)
[13] = Concentration 90 (unit not given)
[14] = Concentration 180 (unit not given)
[15] = Concentration 0.2 (unit not given)
[16] = Concentration 1 (unit not given)
[17] = Concentration 10 (unit not given)

inhibition of ppERK (ppERK [2]): concentration-dependent inhibition
20% Reacted Time (ppERK [3]; [5]): 57.8 min
Initial Rate (ppERK [3]; [5]): 46.949
Saturation Time (ppERK [3]; [5]): 289 min
20% Reacted Time (ppERK [3]; [6]): 59.6 min
Initial Rate (ppERK [3]; [6]): 48.324
Saturation Time (ppERK [3]; [6]): 298 min
20% Reacted Time (ppERK [3]; [7]): 59.6 min
Initial Rate (ppERK [3]; [7]): 36.486
Saturation Time (ppERK [3]; [7]): 298 min
20% Reacted Time (ppERK [3]; [8]): 83 min
Initial Rate (ppERK [3]; [8]): 19.275
Saturation Time (ppERK [3]; [8]): 415 min
20% Reacted Time (ppERK [3]; [9]): 113.6 min
Initial Rate (ppERK [3]; [9]): 10.772
Saturation Time (ppERK [3]; [9]): 568 min
inhibition of ppERK activity (decreased signal in the ADP SPA) (ppERK [3]): concentration-dependent inhibition
Structure (SMILES): Nc1ncnc2c1c(I)cn2[C@@H]1O[C@H](CO)[C@@H](O)[C@H]1O [ITU]
reaction rate in the HTS ppERK assay (ppERK [1]; [4]): significantly decreased the reaction rate

inhibition of ppERK (ppERK [2]): concentration-dependent inhibition
20% Reacted Time (ppERK [3]; [10]): 92 min
Initial Rate (ppERK [3]; [10]): 23.883
Saturation Time (ppERK [3]; [10]): 460 min
20% Reacted Time (ppERK [3]; [11]): 101 min
Initial Rate (ppERK [3]; [11]): 20.427
Saturation Time (ppERK [3]; [11]): 505 min
20% Reacted Time (ppERK [3]; [12]): 117.2 min
Initial Rate (ppERK [3]; [12]): 4.716
Saturation Time (ppERK [3]; [12]): 586 min
20% Reacted Time (ppERK [3]; [13]): 128 min
Initial Rate (ppERK [3]; [13]): 2.8722
Saturation Time (ppERK [3]; [13]): 640 min
20% Reacted Time (ppERK [3]; [14]): 180 min
Initial Rate (ppERK [3]; [14]): 2.3262
Saturation Time (ppERK [3]; [14]): 900 min
inhibition of ppERK activity (decreased signal in the ADP SPA) (ppERK [3]): concentration-dependent inhibition
Structure (SMILES): Nc1nccc(-c2c(-c3ccc(F)cc3)ncn2C2CCNCC2)n1 [SB220025]

Structure (SMILES): CN[C@@H]1C[C@H]2O[C@@](C)([C@@H]1OC)n1c3ccccc3c3c4c(c5c6ccccc6n2c5c31)C(=O)NC4 [staurosporine]
reaction rate in the HTS ppERK assay (ppERK [1]; [4]): significantly decreased the reaction rate
reaction rate in the HTS ppERK assay (ppERK [1]; FIG. 37B (ADP-HH screening)): significantly decreased the reaction rate
reaction rate in the HTS ppERK assay (ppERK [1]; FIG. 37C (ADP-SPA screening (2nd))): significantly decreased the reaction rate
20% Reacted Time (ppERK [3]; [6]): 52.4 min
Initial Rate (ppERK [3]; [6]): 45.419
Saturation Time (ppERK [3]; [6]): 262 min
20% Reacted Time (ppERK [3]; [15]): 70.4 min
Initial Rate (ppERK [3]; [15]): 40.907
Saturation Time (ppERK [3]; [15]): 352 min
20% Reacted Time (ppERK [3]; [16]): 52.4 min
Initial Rate (ppERK [3]; [16]): 23.708
Saturation Time (ppERK [3]; [16]): 262 min
20% Reacted Time (ppERK [3]; [9]): 110 min
Initial Rate (ppERK [3]; [9]): 10.855
Saturation Time (ppERK [3]; [9]): 550 min
20% Reacted Time (ppERK [3]; [17]): 110 min
Initial Rate (ppERK [3]; [17]): 5.9375
Saturation Time (ppERK [3]; [17]): 550 min
